{"source": "patent US12208130B2", "about": "“Treatment of women affected with polycystic ovary syndrome” (INSTITUT NATIONAL DE LA SANTE ET DE LA RECHERCHE MEDICALE …, priority 2017, dated 2025)", "assay": "Cetrorelix measurement in maternal and fetal brain (nano-HPLC-HRMS)", "assay_type": "in vivo, mouse", "details": "dams i.p. 0.5 mg/Kg E16.5-E18.5; brains at E19.5", "experimental": "Timed-pregnant adult (3-4 months) C57BL6/J (B6) (Charles River, USA) dams were injected daily intraperitoneally (i.p.) from embryonic day (E) 16.5 to 18.5 with 200 μL of a solution containing respectively: 1) 0.01M phosphate buffered saline (PBS, pH 7.4, prenatal control-treated), 2) PBS with 0.5 mg Kg^−1 of the GnRH antagonist, cetrorelix acetate (Sigma, Cat #C5249; GnRH antag-treated). At E19.5, dams were anesthetized with ketamine/xylazine, and sacrificed by cervical dislocation. Dams' brains and fetal brains were collected, snap-frozen in liquid nitrogen and stored at −80° C. until nano-HPLC-HRMS experiments.\nMurine maternal and embryo brain samples were prepared adapting the procedure described (Wang et al., 2014, Vol. 1345: 98-106). Briefly, the brains were weighted, homogenized with 1% formic acid in cold acetonitrile and incubated for 15 minutes at −20° C. After centrifugation, the supernatant was freeze-dried and reconstituted with 3% acetic acid and 1% trifluoroacetic acid (TFA). all of the solvents were from Sigma-Aldrich Merck (Milan, Italy). […]\nThe column was equipped with a nanoESl source and the capillary voltage was 2000 V in positive ion mode. […] High resolution spectra were acquired with a resolution of 60000 (FWHM) and the mass accuracy of recorded ions (vs. calculated) was ±5 ppm units (without internal calibration).", "note": "Where a SMILES comes first, the peptide text is derived from it. [ ]: non-standard residue; d: D form. dPhe(4-Cl) = N[C@H](Cc1ccc(Cl)cc1)C(=O)O; d2Nal = N[C@H](Cc1ccc2ccccc2c1)C(=O)O; dCit = NC(=O)NCCC[C@@H](N)C(=O)O; d3Pal = N[C@H](Cc1cccnc1)C(=O)O"}
{"smiles": "CC(=O)N[C@H](Cc1ccc2ccccc2c1)C(=O)N[C@H](Cc1ccc(Cl)cc1)C(=O)N[C@H](Cc1cccnc1)C(=O)N[C@@H](CO)C(=O)N[C@@H](Cc1ccc(O)cc1)C(=O)N[C@H](CCCNC(N)=O)C(=O)N[C@@H](CC(C)C)C(=O)N[C@@H](CCCNC(=N)N)C(=O)N1CCC[C@H]1C(=O)N[C@H](C)C(N)=O", "note": "[Cetrorelix acetate, Ac-D-2Nal-D-Phe(4-Cl)-D-3Pal-Ser-Tyr-D-Cit-Leu-Arg-Pro-D-Ala-NH2] (Ac-[d2Nal][dPhe(4-Cl)][d3Pal]SY[dCit]LRP[dA]-NH2)", "values": [{"measurement": "access to maternal and fetal brain", "result": "can access the maternal as well as the fetal brain"}]}
